The results in this text go back to patent US3932492A, “Process for preparing new amidine compounds” (Kao Soap Co., Ltd., priority 1973, dated 1976).

The data set deals with Wakin goldfish. As to the kind of experiment: Toxicity to fish, plant waste water test method (JIS-K-0102-1964). Type of data set: in vivo. As to the method:
The test was carried out according to plant waste water test method (JIS-K-0102-1964). Wakin goldfish was used as the subject.
*A concentration at which half the number of the subjects died within 48
hours. The higher the number of ppm., the lower the toxicity to fish.

For Benzalkonium chloride, the “TLM (concentration at which half the number of the subjects died within 48 hours)” value amounted to 0.87 ppm.
